Assay results as given in patent US4235902A, “Pesticidal carbamate esters of 5-oximino-1,3-oxazolidin-4-ones” (priority 1976, dated 1980).

Key:
[1] = test system: bean aphid (Aphis fabae Scop.); test: Bean aphid foliage spray test; assay type: in vivo; parameters: key: A: excellent control; B: partial control; C: no control; settings: 500 parts per million, 24 hour
Method: (§1) Suspensions of the test compounds were prepared by dissolving one gram of compound in 50 milliliters of acetone in which had been dissolved 0.1 gram (10 percent of the weight of compound) of an alkylphenoxy polyethoxyethanol surfactant, as an emulsifying or dispersing agent. The resulting solution was mixed into 150 milliliters of water to give roughtly 200 milliliters of a suspension containing the compound in finely divided form. The thus-prepared stock suspension contained 0.5 percent by weight of compound. The test concentrations in parts per million by weight employed in the tests described hereinbelow were obtained by appropriate dilutions of the stock suspension with water. The test procedures were as follows:
BEAN APHID FOLIAGE SPRAY TEST
Adults and nymphal stages of the bean aphid (Aphis fabae Scop.) reared on potted dwarf nasturtium plants at 64°-70° F. and 50-70 per cent relative humidity, constituted the test insects. For testing purposes, the number of aphids per pot was standardized to 100-150 by trimming plants containing excess aphids.
The test compounds were formulated by diluting the stock suspension with water to give a suspension containing 500 parts of test compound per million parts of final formulation.
The potted plants (one pot per compound tested) infested with 100-150 aphids, were placed on a revolving turntable and sprayed with […] of test compound formulation by use of a DeVilbiss spray gun set at 40 psig. air pressure. This application, which lasted 25 seconds, was sufficient to wet the plants to run-off. As a control, 100-110 milliliters of a water-acetone-emulsifier solution containing no test compound were also sprayed on infested plants. After spraying, the pots were placed on their sides on a sheet of white standard mimeograph paper which had been previously ruled to facilitate counting. Temperature and humidity in the test room during the 24 hour holding period were 65°-70° F. and 50-70 per cent, respectively. Aphids which fell onto the paper and were unable to remain standing after being uprighted were considered dead. Aphids remaning on the plants were observed closely for movement and those which were unable to move the length of the body upon stimulation by prodding were considered dead. Per cent mortality was recorded for various concentration levels.
(§2) In these tests the pesticidal activity of the compounds against aphid, mite, Southern Armyworm, Mexican Bean Beetle, nematodes and house fly was rated as follows: […]

[2] = test system: two-spotted mite (Tetranychus urticae Koch); test: Mite foliage spray test; assay type: in vivo; parameters: key: A: excellent control; B: partial control; C: no control; settings: 500 parts per million, six days
Method: as §1
Adults and nymphal stages of the two-spotted mite (Tetranychus urticae Koch), reared on Tendergreen bean plants at 80±5 per cent relative humidity, were the test organisms. Infested leaves from a stock culture were placed on the primary leaves of two bean plants six to eight inches in height, growing in a two-and-a-half inch clay pot. 150-200 Mites, a sufficient number for testing, transferred from the excised leaves to the fresh plants in a period of twenty four hours. Following the twenty four hour transfer period, the excised leaves were removed from the infested plants. The test compounds were formulated by diluting the stock suspension with water to give a suspension containing 500 parts of test compound per million parts of final formulation. The potted plants (one pot per compound) were placed on a revolving turntable and sprayed with 100-110 milliliters of test compound formulation by use of a DeVilbiss spray gun set at 40 psig. air pressure. This application, which lasted 25 seconds, was sufficient to wet the plants to run-off. As a control, 100-110 milliliteres of a water solution containing acetone and emulsifier in the same concentrations as the test compound formulation, but containing no test compound, were also sprayed on infested plants. The sprayed plants were held at 80±5 per cent relative humidity for six days, after which a mortality count of motile forms was made. Microscopic examination for motile forms was made on the leaves of the test plants. Any individual which was capable of locomotion upon prodding was considered living.
as §2

[3] = test system: southern armyworm (Prodenia eridania, (Cram.)); test: Southern armyworm leaf spray test; assay type: in vivo; parameters: key: A: excellent control; B: partial control; C: no control; settings: 500 parts per million, larvae, three days
Method: as §1
SOUTHERN ARMYWORM LEAF SPRAY TEST
Larvae of the southern armyworm (Prodenia eridania, (Cram.)), reared on Tendergreen bean plants at a temperature of 80±5° F. and a relative humidity of 50±5 per cent, constituted the test insects.
The test compounds were formulated by diluting the stock suspension with water to give a suspension containing 500 parts of test compound per million parts of final formulation. Potted Tendergreen bean plants of standard height and age were placed on a revolving turntable and sprayed with 100-110 milliliters of test compound formulation by use of a DeVilbiss spray gun set at 10 psig air pressure. This application, which lasted 25 seconds, was sufficient to wet plants to run-off. As a control, 100-110 milliliters of a water-acetone-emulsifier solution containing no test compound were also sprayed on infested plants. When dry, the paired leaves were separated and each one was placed in a 9 centimeter Petri dish lined with moistened filter paper. Five randomly selected larvae were introduced into each dish and the dishes were closed. The closed dishes were labeled and held at 80°-85° F. for three days. Although the larvae could easily consume the whole leaf within twenty-four hours, no more food was added. Larvae which were unable to move the length of the body, even upon stimulation by prodding, were considered dead. Per cent mortality was recorded for various concentration levels.
as §2

[4] = test system: Mexican bean beetle (Epilachna varivestis, Muls.); test: Mexican bean beetle leaf spray test; assay type: in vivo; parameters: key: A: excellent control; B: partial control; C: no control; settings: 500 parts per million, fourth instar larvae, three days
Method: as §1
MEXICAN BEAN BEETLE LEAF SPRAY TEST
Fourth instar larvae of the Mexican bean beetle (Epilachna varivestis, Muls.), reared on Tendergreen bean plants at a temperature of 80±5° F. and 50±5 per cent relative humidity, were the test insects.
The test compounds were formulated by diluting the stock suspension with water to give a suspension containing 500 parts of test compound per million parts of final formulation. Potted Tendergreen bean plants of standard height and age were placed on a revolving turntable and sprayed with 100-110 milliliters of test compound formulation by use of a DeVilbiss spray gun set at 10 psig air pressure. This application, which lasted 25 seconds, was sufficient to wet plants to run-off. As a control 100-110 milliliters of a water-acetone-emulsifier solution containing no test compound were also sprayed on infested plants. When dry, the paired leaves were separated and each was placed in a 9 centimeter Petri dish lined with moistened filter paper. Five randomly selected larvae were introduced into each dish, and the dishes were closed. The closed dishes were labeled and held at a temperature of 80±5° F. for three days. Although the larvae could easily consume the leaf within 24 to 48 hours, no more food was added. Larvae which were unable to move the length of the body, even upon stimulation, were considered dead.
as §2

[5] = test system: house flies (Musca domestica, L.); test: Fly bait test; assay type: in vivo; parameters: key: A: excellent control; B: partial control; C: no control; settings: 500 parts per million in sugar bait; twenty four hours
Method: as §1
Four to six day old adult house flies (Musca domestica, L.), reared according to the specifications of the Chemical Specialities Manufacturing Association (Blue Book, McNair-Dorland Co., N. Y. 1954; pages 243-244, 261) under controlled conditions of 80±5° F. and 50±5 per cent relative humidity, were the test insects. The flies were immobilized by anesthetizing with carbon dioxide and twenty five immobilized individuals, males and females, were transferred to a cage consisting of a standard food strainer about five inches in diameter which was inverted over a wrapping-paper-covered surface. The test compounds were formulated by diluting the stock suspension with a 10 per cent (by weight) sugar solution to give a suspension containing 500 parts of test compound per million parts of final formulation, by weight. Ten milliliters of the test formulation were added to a souffle cup containing a one-inch square of an absorbent cotton pad. This bait cup was introduced and centered on the blotting paper under the food strainer prior to admitting the anesthetized flies. The caged flies were allowed to feed on the bait for twenty four hours, at a temperature of 80±5° F. and the relative humidity of 50±5 per cent.
as §2

[6] = test system: root-knot nematode, Meloidogyne incognita var. acrita; test: Nematocide test; assay type: in vivo; parameters: key: A: excellent control; B: partial control; C: no control; settings: 3.33 m.g. per jar; galling of cucumber roots rated after approximately 3 weeks
Method: The test organism used was the infective migratory larvae of the root-knot nematode, Meloidogyne incognita var. acrita, reared in the greenhouse on roots of cucumber plants. Infected plants were removed from the culture, and the roots are chopped very finely. A small amount of this inoculum was added to a pint jar containing approximately 180 cc. of soil. The jars were capped and incubated for one week at room temperature. During this period eggs of the nematode were hatched, and the larval forms migrated into the soil.
Ten ml. of the test formulation were added to each of the two jars for each dosage tested. Following the addition of chemical, the jars were capped, and the contents thoroughly mixed on a ball mill for 5 minutes.
The test compounds were formulated by a standard procedure of solution in acetone addition of an emulsifier, and dilution with water. Primary screening tests were conducted at 3.33 m.g. of the test compound per jar.
The jars were left capped at room temperature for a period of 48 hours, and the contents then transferred to 3 inch pots. Subsequently, the pots were seeded to cucumber as an indicator crop and placed in the greenhouse where they were cared for in the normal fashion for approximately 3 weeks.
The cucumber plants were then taken from the pots, the soil removed from the roots, and the amount of galling visually rated.
as §2

[7] = Acute oral (peroral) toxicity to mammals; settings: in vivo, rat, mortality rate of 50 percent
Method: Certain of these compositions were also evaluated to determine their peroral toxicity to mammals. The animal selected for this experiment was the rat. The test results obtained are expressed in terms of the number of milligrams of compositions per kilogram of weight of the animal required to achieve a mortality rate of 50 percent (LD50).

Question: Which results are given for `CNC(=O)ON=C1OC(C)CN(C)C1=O` (centres unmarked) [2-Methylcarbamoyloximino-4,-6-dimethyltetrahydro-1,4-oxazin-3-one]?
Answer: Biological Activity: Aphid [1]: A; Biological Activity: Mite [2]: A; Biological Activity: Southern Army Worm [3]: A; Biological Activity: Bean Beetle [4]: A; Biological Activity: Housefly [5]: A; Biological Activity: Nematode [6]: A

Question: With `CNC(=O)ON=C1OCCN(C)C1=O` [2-Methylcarbamoyloximino-4-methyltetrahydro1,4-oxazin-3-one] as the molecule, how does the “Biological Activity: Aphid” value [1] read?
Answer: A

Question: And the “Biological Activity: Mite” value [2]?
Answer: A

Question: What about the “Biological Activity: Southern Army Worm” value [3] of the same molecule?
Answer: A

Question: And the “Biological Activity: Bean Beetle” value [4]?
Answer: A

Question: What about the “Biological Activity: Housefly” value [5] of the same molecule?
Answer: A

Question: And the “Biological Activity: Nematode” value [6]?
Answer: A

Question: What about the LD50 [7] of the same molecule?
Answer: 343 mg/kg

Question: For `CCCN1CCOC(=NOC(=O)NC)C1=O`, which “Biological Activity: Aphid” value [1] is on record?
Answer: A

Question: And the “Biological Activity: Mite” value [2]?
Answer: A

Question: What about the “Biological Activity: Southern Army Worm” value [3] of the same molecule?
Answer: A

Question: What about the “Biological Activity: Bean Beetle” value [4] of the same molecule?
Answer: B

Question: And the “Biological Activity: Housefly” value [5]?
Answer: A

Question: And the “Biological Activity: Nematode” value [6]?
Answer: C

Question: Which “Biological Activity: Aphid” value [1] does the source give for `CCN1CCOC(=NOC(=O)NC)C1=O` here?
Answer: A

Question: What about the “Biological Activity: Mite” value [2] of the same molecule?
Answer: A

Question: And the “Biological Activity: Southern Army Worm” value [3]?
Answer: C

Question: And the “Biological Activity: Bean Beetle” value [4]?
Answer: C

Question: What about the “Biological Activity: Housefly” value [5] of the same molecule?
Answer: A

Question: What about the “Biological Activity: Nematode” value [6] of the same molecule?
Answer: C

Question: With `CN(SC(Cl)(Cl)Cl)C(=O)ON=C1OCC(C)(C)N(C)C1=O` [2-[N-Trichloromethanesulfenyl-N-methyl/carbamoyloximino]-4,5,5-trimethyltetrahydro, -1,4-oxazin-3-one] as the molecule, how does the “Biological Activity: Aphid” value [1] read?
Answer: A

Question: And the “Biological Activity: Mite” value [2]?
Answer: A

Question: And the “Biological Activity: Southern Army Worm” value [3]?
Answer: C

Question: What about the “Biological Activity: Bean Beetle” value [4] of the same molecule?
Answer: B

Question: And the “Biological Activity: Housefly” value [5]?
Answer: A

Question: What about the LD50 [7] of the same molecule?
Answer: 794 mg/kg

Question: Which results are given for `CNC(=O)ON=C1OCCN(C(C)C)C1=O`?
Answer: Biological Activity: Aphid [1]: A; Biological Activity: Mite [2]: C; Biological Activity: Southern Army Worm [3]: C; Biological Activity: Bean Beetle [4]: C; Biological Activity: Housefly [5]: A

Question: Which results are given for `CCC1COC(=NOC(=O)N(C)SC(Cl)(Cl)Cl)C(=O)N1C` (centres unmarked)?
Answer: Biological Activity: Aphid [1]: A; Biological Activity: Mite [2]: A; Biological Activity: Southern Army Worm [3]: C; Biological Activity: Bean Beetle [4]: A; Biological Activity: Housefly [5]: A; Biological Activity: Nematode [6]: A

Question: What does the source list for `CN1CCOC(=NOC(=O)N(C)SC(Cl)(Cl)Cl)C1=O` [2-[N-Trichloromethanesulfenyl-N-methylcarbamoyloximino]-4-methyltetrahydro-1,4-oxazin-3-one]?
Answer: Biological Activity: Aphid [1]: A; Biological Activity: Mite [2]: B; Biological Activity: Southern Army Worm [3]: C; Biological Activity: Bean Beetle [4]: A; Biological Activity: Housefly [5]: A; Biological Activity: Nematode [6]: A

Question: For `CNC(=O)ON=C1OCC(C)(C)N(C)C1=O`, which “Biological Activity: Aphid” value [1] is on record?
Answer: A

Question: And the “Biological Activity: Mite” value [2]?
Answer: A

Question: And the “Biological Activity: Southern Army Worm” value [3]?
Answer: C

Question: And the “Biological Activity: Bean Beetle” value [4]?
Answer: A

Question: And the “Biological Activity: Housefly” value [5]?
Answer: A

Question: And the “Biological Activity: Nematode” value [6]?
Answer: A

Question: What about the LD50 [7] of the same molecule?
Answer: 126 mg/kg

Question: Which results are given for `CCC1COC(=NOC(=O)NC)C(=O)N1C` (centres unmarked)?
Answer: Biological Activity: Aphid [1]: A; Biological Activity: Mite [2]: A; Biological Activity: Southern Army Worm [3]: A; Biological Activity: Bean Beetle [4]: C; Biological Activity: Housefly [5]: A; Biological Activity: Nematode [6]: C; LD50 [7]: 23.8 mg/kg
